What was measured:
[1] = xn = mol fraction of the nth substance listed; details: 101.33 kPa, Liquid; for speed of sound: Anton Paar DSA 48; for mass density: Vibrating tube method
[2] = excess molar enthalpy (molar enthalpy of mixing); xn = mol fraction of the nth substance listed; details: 298.15 K, 101.33 kPa, Liquid, Flow calorimetry
[3] = 101.33 kPa, Liquid; for speed of sound: Anton Paar DSA 48; for mass density: Vibrating tube method

CC(C)CCl [1-chloro-2-methylpropane] + CC1CCCO1
[1]
Details | mass density, 298.15 K [kg/m3] | mass density, 313.15 K [kg/m3] | speed of sound, 298.15 K [m/s] | speed of sound, 313.15 K [m/s]
x2 = 0.0515 | 870.05 | – | 1085.4 | –
x2 = 0.0553 | – | 852.78 | – | 1023
x2 = 0.1006 | 869.23 | – | 1091.3 | –
x2 = 0.1014 | – | 852.08 | – | 1028.6
x2 = 0.1992 | – | 850.48 | – | 1040.5
x2 = 0.2026 | 867.39 | – | 1103.8 | –
x2 = 0.3 | – | 848.74 | – | 1052.7
x2 = 0.3059 | 865.41 | – | 1116.6 | –
x2 = 0.4062 | 863.41 | – | 1129.1 | –
x2 = 0.4072 | – | 846.78 | – | 1065.7
x2 = 0.5015 | – | 844.98 | – | 1077
x2 = 0.505 | 861.34 | – | 1141.4 | –
x2 = 0.6022 | 859.23 | – | 1153.5 | –
x2 = 0.605 | – | 842.9 | – | 1089.3
x2 = 0.7022 | – | 840.83 | – | 1100.8
x2 = 0.7035 | 856.92 | – | 1166.1 | –
x2 = 0.8 | – | 838.61 | – | 1112.4
x2 = 0.8012 | 854.57 | – | 1178.2 | –
x2 = 0.8967 | – | 836.35 | – | 1123.8
x2 = 0.9099 | 851.75 | – | 1191.6 | –
x2 = 0.9491 | – | 835.09 | – | 1130
x2 = 0.9492 | 850.66 | – | 1196.4 | –

[2]
Details | excess molar enthalpy [kcal/mol]
x2 = 0.06 | -0.00789
x2 = 0.109 | -0.016
x2 = 0.21 | -0.0315
x2 = 0.309 | -0.0416
x2 = 0.411 | -0.0504
x2 = 0.511 | -0.0535
x2 = 0.609 | -0.0526
x2 = 0.707 | -0.0468
x2 = 0.806 | -0.0361
x2 = 0.904 | -0.0201
x2 = 0.954 | -0.0103

CC1CCCO1 (stereo unspecified) [2-methyltetrahydrofuran]
[3]
Details | mass density [kg/m3] | speed of sound [m/s]
298.15 K | 849.2 | 1202.6
313.15 K | 833.88 | –
333.15 K | – | 1136.2

CC(C)CCl [1-chloro-2-methylpropane]
[3]
Details | mass density [kg/m3] | speed of sound [m/s]
298.15 K | 870.89 | 1079.2
313.15 K | 853.56 | –
333.15 K | – | 1016.3

CCCCCl [1-chlorobutane]
[3]
Details | mass density [kg/m3] | speed of sound [m/s]
298.15 K | 880.69 | 1118.8
313.15 K | 863.86 | –
333.15 K | – | 1057.1

CC(C)(C)Cl [2-chloro-2-methylpropane]
[3]
Details | mass density [kg/m3] | speed of sound [m/s]
298.15 K | 835.67 | 983.1
313.15 K | 818.43 | –
333.15 K | – | 920.3

CC(C)(C)Cl [2-chloro-2-methylpropane] + CC1CCCO1
[1]
Details | mass density, 298.15 K [kg/m3] | mass density, 313.15 K [kg/m3] | speed of sound, 298.15 K [m/s] | speed of sound, 313.15 K [m/s]
x2 = 0.0505 | 837.22 | – | 993.8 | –
x2 = 0.0517 | – | 819.88 | – | 932.6
x2 = 0.0895 | – | 820.9 | – | 941.2
x2 = 0.108 | 838.65 | – | 1006.1 | –
x2 = 0.195 | – | 823.23 | – | 964
x2 = 0.2065 | 840.58 | – | 1027.5 | –
x2 = 0.3015 | – | 825.36 | – | 986.5
x2 = 0.3136 | 842.3 | – | 1050.9 | –
x2 = 0.3969 | – | 827.1 | – | 1006.8
x2 = 0.4125 | 843.81 | – | 1072.6 | –
x2 = 0.4986 | – | 828.77 | – | 1028.7
x2 = 0.5156 | 845.26 | – | 1095.2 | –
x2 = 0.605 | – | 830.31 | – | 1051.5
x2 = 0.6124 | 846.46 | – | 1116.5 | –
x2 = 0.6978 | – | 831.4 | – | 1071.1
x2 = 0.7107 | 847.59 | – | 1138.2 | –
x2 = 0.7998 | – | 832.45 | – | 1092
x2 = 0.8031 | 848.42 | – | 1158.7 | –
x2 = 0.8947 | – | 833.18 | – | 1111.7
x2 = 0.9022 | 848.98 | – | 1180.6 | –
x2 = 0.9476 | 849.12 | – | 1190.7 | –
x2 = 0.949 | – | 833.54 | – | 1123.7

[2]
Details | excess molar enthalpy [kcal/mol]
x2 = 0.057 | -0.00335
x2 = 0.104 | -0.00717
x2 = 0.201 | -0.0146
x2 = 0.298 | -0.0198
x2 = 0.398 | -0.0241
x2 = 0.497 | -0.0261
x2 = 0.597 | -0.0253
x2 = 0.696 | -0.0227
x2 = 0.799 | -0.0184
x2 = 0.901 | -0.0105
x2 = 0.954 | -0.0055

Reference: the NIST ThermoML archive (doi:10.1016/j.tca.2004.11.034)
